The source made the active and inactive calls.
How the values were obtained:
[1] = biological target: Mu-type opioid receptor (Homo sapiens, UniProt P35372); type: functional, cell-based;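 also: U2OS cells with beta-arrestin recruitment to OPRM1 by beta-gal complementation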
[2] = biological target: 5-hydroxytryptamine receptor 2A (Mus musculus, UniProt P35363); type: functional, cell-based;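 also: CHO-K1 cells with tagged receptor and beta-arrestin; agonist potency measured as compound-induced activation of the receptor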
5-hydroxytryptamine receptor 2A, sequence (P35363 whole entry): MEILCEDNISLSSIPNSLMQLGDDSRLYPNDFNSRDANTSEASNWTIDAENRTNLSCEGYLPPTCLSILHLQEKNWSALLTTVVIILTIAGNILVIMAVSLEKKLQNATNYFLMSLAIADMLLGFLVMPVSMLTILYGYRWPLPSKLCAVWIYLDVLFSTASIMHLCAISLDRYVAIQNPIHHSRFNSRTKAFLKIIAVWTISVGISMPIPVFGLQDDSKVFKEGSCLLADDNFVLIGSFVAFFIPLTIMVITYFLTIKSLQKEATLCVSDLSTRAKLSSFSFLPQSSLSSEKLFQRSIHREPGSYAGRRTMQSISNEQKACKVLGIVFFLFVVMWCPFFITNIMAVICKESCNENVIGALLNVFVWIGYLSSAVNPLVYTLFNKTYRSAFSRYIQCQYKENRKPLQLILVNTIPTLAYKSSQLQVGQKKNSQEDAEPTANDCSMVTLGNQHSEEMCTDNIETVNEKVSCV

[3] = blockers of CRF-binding protein–CRF-R2 complex – cell-based, uHTS hits, 384-well, dose response (AID 651639); type: functional, Homo sapiens; conditions: read-out: IC50_Mean
[4] = biological target: T1, Corticotropin-releasing factor receptor 2/Corticotropin-releasing factor-binding protein (Homo sapiens, UniProt P24387+Q13324); assay: Dose Response confirmation of uHTS hits for small molecule antagonists of the CRF-binding protein and CRF-R2 receptor complex.; type: functional; conditions: read-out: IC50_Mean
T1 sequence (Q13324 whole entry): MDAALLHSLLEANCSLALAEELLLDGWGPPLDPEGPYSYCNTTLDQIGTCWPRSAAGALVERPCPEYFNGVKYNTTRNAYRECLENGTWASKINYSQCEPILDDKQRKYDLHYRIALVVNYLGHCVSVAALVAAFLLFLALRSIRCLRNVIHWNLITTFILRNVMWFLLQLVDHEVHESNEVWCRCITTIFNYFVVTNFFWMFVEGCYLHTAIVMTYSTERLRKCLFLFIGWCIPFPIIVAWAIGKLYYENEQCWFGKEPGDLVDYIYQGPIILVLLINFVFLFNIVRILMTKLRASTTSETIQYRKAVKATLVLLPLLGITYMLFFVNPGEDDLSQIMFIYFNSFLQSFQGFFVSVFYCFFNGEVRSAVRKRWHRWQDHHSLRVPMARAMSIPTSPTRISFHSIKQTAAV
T1 sequence (P24387 whole entry): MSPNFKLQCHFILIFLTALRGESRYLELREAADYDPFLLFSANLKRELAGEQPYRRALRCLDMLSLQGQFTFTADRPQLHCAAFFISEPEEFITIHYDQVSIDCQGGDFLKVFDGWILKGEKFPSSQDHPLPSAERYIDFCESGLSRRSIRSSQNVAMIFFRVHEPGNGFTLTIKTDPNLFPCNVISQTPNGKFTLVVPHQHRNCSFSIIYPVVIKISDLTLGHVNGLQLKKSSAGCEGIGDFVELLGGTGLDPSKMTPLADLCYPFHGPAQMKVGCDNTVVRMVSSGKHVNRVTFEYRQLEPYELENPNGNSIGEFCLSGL

[5] = biological target: T1, Corticotropin-releasing factor receptor 2/Corticotropin-releasing factor-binding protein; assay: activators of CRF receptor 2 with binding protein – uHTS hits, confirmation (AID 602473); type: functional; conditions: read-out: EC50_Mean
[6] = cells; type: functional, cell-based
[7] = biological target: T2, Trace amine-associated receptor 1 (Homo sapiens, UniProt Q96RJ0); assay: Counterscreen for agonists of the human trace amine associated receptor 1 (hTAAR1): Fluorescence-based cell-based high throughput dose response assay to identify hTAAR1 agonist that also desensitize TAAR1 receptor response.; type: functional
T2 sequence (Q96RJ0 whole entry): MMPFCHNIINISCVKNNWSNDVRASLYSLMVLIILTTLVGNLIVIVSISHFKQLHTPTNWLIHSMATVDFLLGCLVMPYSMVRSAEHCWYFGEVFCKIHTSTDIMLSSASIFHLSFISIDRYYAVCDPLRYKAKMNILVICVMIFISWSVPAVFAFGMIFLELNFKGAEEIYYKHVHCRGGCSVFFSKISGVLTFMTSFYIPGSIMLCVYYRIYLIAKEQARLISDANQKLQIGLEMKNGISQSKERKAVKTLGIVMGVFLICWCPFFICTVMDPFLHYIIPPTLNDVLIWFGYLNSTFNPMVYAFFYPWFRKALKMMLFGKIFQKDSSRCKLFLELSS

[8] = cells; type: functional, cell-based; remark: listed apart in the source
[9] = biological target: T2, Trace amine-associated receptor 1; assay: Fluorescence-based cell-based high throughput dose response assay to identify agonists of the human trace amine associated receptor 1 (TAAR1).; type: functional
[10] = viability loss in HeLa cells – cytotoxicity control for MgcRacGAP inhibitor project, dose response (AID 624300); type: functional
[11] = biological target: T3, Rac GTPase-activating protein 1 (Homo sapiens, UniProt Q9H0H5); assay: blockers of MgcRacGAP-driven Rac1 GTP hydrolysis – biochemical, ADP Hunter fluorescence, primary and confirmatory, confirmation (AID 624330); type: functional
T3 sequence (Q9H0H5 whole entry): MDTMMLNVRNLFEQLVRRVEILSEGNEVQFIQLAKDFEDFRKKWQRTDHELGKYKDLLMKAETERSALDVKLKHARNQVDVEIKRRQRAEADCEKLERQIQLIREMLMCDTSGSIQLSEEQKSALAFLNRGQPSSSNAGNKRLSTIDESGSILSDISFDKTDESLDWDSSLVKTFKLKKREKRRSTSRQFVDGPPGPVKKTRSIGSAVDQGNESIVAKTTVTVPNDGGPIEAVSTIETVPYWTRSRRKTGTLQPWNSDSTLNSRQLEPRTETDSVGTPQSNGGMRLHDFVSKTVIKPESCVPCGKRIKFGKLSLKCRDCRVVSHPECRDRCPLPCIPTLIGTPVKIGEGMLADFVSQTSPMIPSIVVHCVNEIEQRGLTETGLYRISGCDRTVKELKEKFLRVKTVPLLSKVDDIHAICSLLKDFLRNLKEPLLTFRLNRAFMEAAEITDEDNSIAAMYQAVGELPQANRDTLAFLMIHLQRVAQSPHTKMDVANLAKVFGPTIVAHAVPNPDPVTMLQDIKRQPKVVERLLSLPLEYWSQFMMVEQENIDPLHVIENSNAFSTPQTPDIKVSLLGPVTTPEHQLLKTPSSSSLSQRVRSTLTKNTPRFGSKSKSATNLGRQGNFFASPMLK

[12] = biological target: T4, DNA repair and recombination protein RAD54-like (Homo sapiens, UniProt Q92698); assay: RAD54 Holliday junction migration blockers – biochemical, fluorescence, cherry-picked samples, dose series, confirmation (AID 651657); type: functional
T4 sequence (Q92698 whole entry): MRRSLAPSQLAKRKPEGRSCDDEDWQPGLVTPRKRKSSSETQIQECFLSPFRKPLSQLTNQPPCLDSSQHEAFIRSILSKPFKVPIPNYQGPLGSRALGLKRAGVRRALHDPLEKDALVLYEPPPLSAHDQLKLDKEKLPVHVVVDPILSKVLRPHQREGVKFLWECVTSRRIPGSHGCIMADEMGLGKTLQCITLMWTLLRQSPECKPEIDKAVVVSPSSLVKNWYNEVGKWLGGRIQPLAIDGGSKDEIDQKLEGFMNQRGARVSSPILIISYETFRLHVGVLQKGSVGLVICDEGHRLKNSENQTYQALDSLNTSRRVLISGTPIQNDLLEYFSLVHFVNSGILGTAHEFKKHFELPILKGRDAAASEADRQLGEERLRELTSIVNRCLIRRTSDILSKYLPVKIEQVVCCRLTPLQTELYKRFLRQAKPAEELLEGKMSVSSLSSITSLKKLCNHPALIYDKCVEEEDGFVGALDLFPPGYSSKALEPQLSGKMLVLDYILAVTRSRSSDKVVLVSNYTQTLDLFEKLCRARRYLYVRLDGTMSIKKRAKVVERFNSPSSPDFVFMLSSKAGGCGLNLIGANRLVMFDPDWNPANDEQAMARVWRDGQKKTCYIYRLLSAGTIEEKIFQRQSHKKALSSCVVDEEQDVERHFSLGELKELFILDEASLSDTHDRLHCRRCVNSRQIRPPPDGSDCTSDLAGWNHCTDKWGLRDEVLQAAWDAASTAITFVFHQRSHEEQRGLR

[13] = Luminescence Cell-Based Dose Confirmation HTS to Identify Activators of 5'UTR Stem-Loop Driven Alpha-Synuclein mRNA Translation in H4 Neuroglioblastoma Cells. [Related pubchem assays: 1829 (Project Summary), 1814 (Primary HTS)]; type: functional
[14] = test system: H4; assay: Luminescence Cell-Based Dose Response HTS to Identify Activators of 5'UTR Stem-Loop Driven Prion Protein mRNA Translation in H4 Neuroglioblastoma Cells. [Related pubchem assays: 1829 (Project Summary), 1814 (Primary HTS)]; type: functional; conditions: Homo sapiens
[15] = Luminescence Cell-Based Dose Response HTS to Identify Activators of Luciferase Translation or Activity in H4 […] Cells. [Related pubchem assays: 1829 (Project Summary), 1814 (Primary HTS)]; type: functional
[16] = biological target: Disintegrin and metalloproteinase domain-containing protein 17 (Homo sapiens, UniProt P78536); assay: exosite inhibitors of ADAM17, dose response, biochemical (AID 743260)
Disintegrin and metalloproteinase domain-containing protein 17, sequence (P78536 whole entry, the tested form may be a part): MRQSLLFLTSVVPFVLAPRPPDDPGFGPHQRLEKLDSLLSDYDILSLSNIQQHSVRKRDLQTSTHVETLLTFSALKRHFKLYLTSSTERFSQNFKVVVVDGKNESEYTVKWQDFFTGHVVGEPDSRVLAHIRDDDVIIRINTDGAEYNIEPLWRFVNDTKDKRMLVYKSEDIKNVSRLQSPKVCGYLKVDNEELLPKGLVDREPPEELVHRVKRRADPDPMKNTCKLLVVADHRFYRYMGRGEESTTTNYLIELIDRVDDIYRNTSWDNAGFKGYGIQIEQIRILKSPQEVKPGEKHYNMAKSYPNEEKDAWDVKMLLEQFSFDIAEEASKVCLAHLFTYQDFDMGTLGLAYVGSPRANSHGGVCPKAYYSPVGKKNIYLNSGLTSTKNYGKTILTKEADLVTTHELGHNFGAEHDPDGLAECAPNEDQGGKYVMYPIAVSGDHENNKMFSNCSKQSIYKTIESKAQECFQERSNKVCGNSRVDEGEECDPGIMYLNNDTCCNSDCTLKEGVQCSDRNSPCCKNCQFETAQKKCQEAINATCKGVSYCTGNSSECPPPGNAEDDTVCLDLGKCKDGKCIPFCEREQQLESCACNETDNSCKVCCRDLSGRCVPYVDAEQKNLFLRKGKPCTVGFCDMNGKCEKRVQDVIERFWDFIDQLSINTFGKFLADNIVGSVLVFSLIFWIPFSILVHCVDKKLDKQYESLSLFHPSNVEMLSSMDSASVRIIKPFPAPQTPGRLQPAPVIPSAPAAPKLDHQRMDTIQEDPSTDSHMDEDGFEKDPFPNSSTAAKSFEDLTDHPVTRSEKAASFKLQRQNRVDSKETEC

[17] = inhibition of ADAM10 peptide cleavage – biochemical, FRET peptide substrate, recombinant human ADAM10, selectivity assay for ADAM17 exosite inhibitor project, dose response (AID 743259);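 also: ADAM10 enzyme cleaving a FRET peptide substrate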
[18] = Luminescence-based cell-based high throughput dose response assay to identify activators of the DAF-12 from the parasite S. stercoralis (ssDAF-12).; type: functional
[19] = biological target: T5, Oxysterols receptor LXR-beta (Homo sapiens, UniProt P55055); assay: LXR agonists, Gal4 luciferase reporter, dose response, counter-screen for ssDAF-12 agonist project, cell-based, luminescence, HEK293, S. stercoralis campaign (AID 720737); type: functional; conditions: read-out: IC50 (the source's name)
T5 sequence (P55055 whole entry): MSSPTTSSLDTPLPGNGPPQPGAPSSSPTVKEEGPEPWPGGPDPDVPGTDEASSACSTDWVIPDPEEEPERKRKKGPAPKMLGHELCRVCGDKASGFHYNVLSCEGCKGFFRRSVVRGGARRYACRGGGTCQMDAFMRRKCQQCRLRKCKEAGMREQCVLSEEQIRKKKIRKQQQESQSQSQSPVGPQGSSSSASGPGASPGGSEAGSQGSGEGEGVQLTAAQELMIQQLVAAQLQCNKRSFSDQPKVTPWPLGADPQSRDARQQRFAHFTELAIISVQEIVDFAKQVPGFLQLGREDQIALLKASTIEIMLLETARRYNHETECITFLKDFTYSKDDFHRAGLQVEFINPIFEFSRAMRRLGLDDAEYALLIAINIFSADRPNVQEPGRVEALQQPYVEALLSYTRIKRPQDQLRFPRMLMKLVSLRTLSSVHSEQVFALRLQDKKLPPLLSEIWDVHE

[20] = biological target: Large T antigen (Simian virus 40, UniProt P03070); type: functional, Betapolyomavirus macacae;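 also: Confirmatory-stage PubChem screen for compounds that inhibit SV40 T antigen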
Large T antigen, sequence (P03070 whole entry): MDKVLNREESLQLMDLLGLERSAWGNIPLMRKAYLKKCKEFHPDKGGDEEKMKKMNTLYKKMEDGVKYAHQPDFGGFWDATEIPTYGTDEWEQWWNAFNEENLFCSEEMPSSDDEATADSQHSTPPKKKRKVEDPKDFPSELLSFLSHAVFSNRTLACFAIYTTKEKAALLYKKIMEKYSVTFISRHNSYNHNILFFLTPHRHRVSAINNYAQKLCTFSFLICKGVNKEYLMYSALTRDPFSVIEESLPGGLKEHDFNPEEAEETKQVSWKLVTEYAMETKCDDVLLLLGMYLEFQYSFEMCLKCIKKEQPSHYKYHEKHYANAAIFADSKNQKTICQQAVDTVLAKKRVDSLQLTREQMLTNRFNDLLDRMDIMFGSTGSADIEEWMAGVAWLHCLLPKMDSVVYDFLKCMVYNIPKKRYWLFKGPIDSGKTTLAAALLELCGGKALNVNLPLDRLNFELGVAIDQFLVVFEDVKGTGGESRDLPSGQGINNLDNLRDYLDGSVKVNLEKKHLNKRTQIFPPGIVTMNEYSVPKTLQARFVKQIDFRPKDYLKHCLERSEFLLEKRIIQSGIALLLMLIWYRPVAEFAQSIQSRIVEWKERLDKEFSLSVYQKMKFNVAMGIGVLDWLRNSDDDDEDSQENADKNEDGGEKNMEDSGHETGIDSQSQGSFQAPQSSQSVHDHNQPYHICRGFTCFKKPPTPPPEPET

[21] = biological target: T6, DNA repair protein RAD52 homolog (Homo sapiens, UniProt P43351); type: functional, biochemical
T6 sequence (P43351 whole entry): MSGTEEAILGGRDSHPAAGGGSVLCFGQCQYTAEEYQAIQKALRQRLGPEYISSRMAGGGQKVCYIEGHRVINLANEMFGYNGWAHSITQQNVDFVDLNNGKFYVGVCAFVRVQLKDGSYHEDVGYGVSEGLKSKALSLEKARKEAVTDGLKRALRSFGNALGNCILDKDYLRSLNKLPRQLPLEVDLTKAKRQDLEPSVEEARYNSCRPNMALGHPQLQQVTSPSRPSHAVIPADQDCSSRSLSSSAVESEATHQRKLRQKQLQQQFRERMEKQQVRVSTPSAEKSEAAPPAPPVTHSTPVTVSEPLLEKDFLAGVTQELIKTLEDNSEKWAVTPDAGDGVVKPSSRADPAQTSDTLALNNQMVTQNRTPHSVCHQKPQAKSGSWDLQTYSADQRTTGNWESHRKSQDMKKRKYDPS

[22] = test system: H9c2; assay: cells; type: functional, cell-based; conditions: Rattus norvegicus, H9c2, Myocardium;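 also: confirmatory concentration-response retest of ultra-high-throughput screening hits for modulation of myocardial damage; cell death induced by hydrogen peroxide oxidative stress; compound pretreatment for 60 min then peroxide exposure for 2 h; potency is for protecting the cells against peroxide damage rather than for killing them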

Mu-type opioid receptor, sequence (P35372 whole entry): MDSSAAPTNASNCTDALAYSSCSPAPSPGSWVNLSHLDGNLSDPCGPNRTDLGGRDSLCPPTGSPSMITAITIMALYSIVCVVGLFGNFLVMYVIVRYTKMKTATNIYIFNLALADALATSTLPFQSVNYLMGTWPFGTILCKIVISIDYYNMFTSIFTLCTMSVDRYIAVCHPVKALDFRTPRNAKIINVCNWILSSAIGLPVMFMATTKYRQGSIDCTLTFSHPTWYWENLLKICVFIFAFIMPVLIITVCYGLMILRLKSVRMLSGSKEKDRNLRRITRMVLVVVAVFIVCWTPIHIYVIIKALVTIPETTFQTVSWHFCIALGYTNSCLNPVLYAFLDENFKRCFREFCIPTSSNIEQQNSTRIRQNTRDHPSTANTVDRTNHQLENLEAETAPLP

Compound: O=C(c1ccco1)N1CCN(CCCCN2C(=O)c3ccccc3C2=O)CC1
- EC50 [1]: 92.5 µM (inactive)
- EC50 [2]: 76.1 µM (inactive)

Compound: COc1ccccc1-c1ccc(SCc2cccc(F)c2)nn1
- IC50 [3]: > 20 µM (inactive)
- IC50 [4]: < 0.368 µM (active)
- EC50 [5]: > 53 µM (inactive)

Compound: O=C(NCCc1ccccc1)c1nc2nc(-c3cccs3)cc(C(F)(F)F)n2n1
- IC50 [6]: 24.1 µM (inactive)
- IC50 [7]: 1.91 µM (active)
- EC50 [8]: > 29.9 µM (inactive)
- EC50 [9]: 0.346 µM (active)

Compound: CCN1C(=O)/C(=C2/C=Cc3cc(C)ccc3N2CC)N(C)C1=S
- CC50 [10]: 100 µM (active)
- IC50 [11]: 60.4 µM (active)

Compound: CC(=O)NC(Cc1cccc(C)c1)C(=O)NC1CCN(c2ncccc2[N+](=O)[O-])CC1 (stereo unspecified)
- IC50 [3]: 18.8 µM (active)
- IC50 [4]: 5.13 µM (active)
- EC50 [5]: > 53 µM (inactive)

Compound: Clc1ccc(CN2CCN(c3ncccn3)CC2)c(Cl)c1
- EC50 [1]: 92.5 µM (inactive)
- EC50 [2]: 1.29 µM (active)

Compound: CC1CCc2sc3nc(N4CCN(CCO)CC4)n4ncnc4c3c2C1 (stereo unspecified)
- AC50 [12]: 34.7 µM (active)
- EC50 [13]: 24.7 µM (active)
- EC50 [14]: 34.7 µM (active)
- EC50 [15]: 8.04 µM (active)

Compound: COC(=O)c1ccc(CN2C(=O)C(C)N(C(=O)c3c(F)cccc3F)c3ccccc32)cc1 (stereo unspecified)
- IC50 [16]: > 69.5 µM (inactive)
- IC50 [3]: 17 µM (active)
- IC50 [4]: < 0.368 µM (active)
- EC50 [5]: > 53 µM (inactive)
- IC50 [17]: > 69.5 µM (inactive)

Compound: COc1cc(C2c3cc4c(cc3OC(NCCc3ccccc3)C2C)OCO4)cc(OC)c1OC (stereo unspecified)
- IC50 [6]: > 29.9 µM (inactive)
- IC50 [7]: 0.261 µM (active)
- EC50 [8]: > 29.9 µM (inactive)
- EC50 [9]: 0.0239 µM (active)

Compound: COc1cc(C(C)=O)ccc1OCC(O)CN1CCN(c2ccccn2)CC1 (stereo unspecified)
- EC50 [1]: 92.5 µM (inactive)
- EC50 [2]: 0.321 µM (active)

Compound: CCOc1cc(/C=N/NC(=O)Nc2ccccc2)ccc1O
- IC50 [18]: > 67.6 µM (inactive)
- EC50 [19]: > 67.6 µM (inactive)
- EC50 [14]: 1.94 µM (active)
- EC50 [15]: 16.6 µM (active)
- IC50 [20]: > 100 µM (active)
- CC50 [10]: 100 µM (active)
- IC50 [11]: 32.5 µM (active)

Compound: COc1cc2nc(Nc3ccc(F)cc3)nc(N)c2cc1OC
- AC50 [12]: 49.9 µM (active)
- AC50 [21]: 7.26 µM (active)
- IC50 [22]: > 79 µM (inactive)
